These results are taken from patent US7109354B2, “Thiophene amidines, compositions thereof, and methods of treating complement-mediated diseases and conditions” (3-Dimensional Pharmaceuticals, Inc., priority 2002, dated 2006).

Several values for one entry are separate records, joined by “and”; a condition that tells them apart may be missing. Equal values may be shown once.

The assay concerns the target T1, Activated human C1s (Homo sapiens, UniProt P09871).
T1 construct: purchased Calbiochem (La Jolla, Calif.)
T1 sequence (P09871 438-688 limits assumed): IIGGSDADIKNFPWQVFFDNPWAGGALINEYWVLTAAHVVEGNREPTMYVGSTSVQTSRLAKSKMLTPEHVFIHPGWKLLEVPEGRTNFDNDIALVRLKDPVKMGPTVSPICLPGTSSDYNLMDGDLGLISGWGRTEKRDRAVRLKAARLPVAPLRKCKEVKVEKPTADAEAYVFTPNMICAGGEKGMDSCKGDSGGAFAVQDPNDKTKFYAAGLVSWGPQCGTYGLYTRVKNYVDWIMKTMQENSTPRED
T1 sequence (P09871 16-437 partner limits assumed): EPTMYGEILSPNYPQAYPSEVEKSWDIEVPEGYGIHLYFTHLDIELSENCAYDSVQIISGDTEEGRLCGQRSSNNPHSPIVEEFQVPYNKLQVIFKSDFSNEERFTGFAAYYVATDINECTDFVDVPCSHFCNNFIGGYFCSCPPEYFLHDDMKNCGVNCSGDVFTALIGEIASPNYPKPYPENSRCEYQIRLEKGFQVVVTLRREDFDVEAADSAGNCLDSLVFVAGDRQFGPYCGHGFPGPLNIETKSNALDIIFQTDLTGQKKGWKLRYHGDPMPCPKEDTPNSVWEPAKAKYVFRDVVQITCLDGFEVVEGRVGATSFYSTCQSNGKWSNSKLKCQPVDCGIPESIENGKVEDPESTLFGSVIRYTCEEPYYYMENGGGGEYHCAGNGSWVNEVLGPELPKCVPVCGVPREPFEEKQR
As to the kind of experiment: In vitro inhibition of C1s (Ki determination, C1s-catalyzed hydrolysis of Z-Gly-Arg-S-Bzl, DTNB readout). It counts as biochemical. Particulars: substrate Z-Gly-Arg-S-Bzl 45 μM, DTNB 200 μM, C1s 2.3 nM, pH 7.5, 37° C., absorbance at 405 nm. The procedure: Reagents: All buffer salts were obtained from Sigma Chemical Company (St. Louis, Mo.), and were of the highest purity available. DTNB was purchased from Pierce (Rockford, Ill.). Z-Gly-Arg-S-Bzl was purchased from Enzyme Systems Products (Livermore, Calif.). Activated human C1s was purchased from Calbiochem (La Jolla, Calif.).
Test compounds are prepared as a 10 μM solution in DMSO. Dilutions are prepared in DMSO yielding 7 final concentrations encompassing a 700-fold concentration range.
Reactions were initiated by the addition of a 10 μL aliquot of the enzyme, and the absorbance increase at 405 nm is continuously recorded for 15 minutes in a Molecular Devices plate reader. Final DMSO concentration was 4.3%. […] The ratio of the velocity (rate of change in absorbance as a function of time) for a sample containing no test compound is divided by the velocity of a sample containing test compound, and is plotted as a function of test compound concentration. The data are fit to a linear regression, and the value of the slope of the line calculated. The inverse of the slope is the experimentally determined Ki value.
Take `CSc1sc(C(=N)N)cc1S(=O)(=O)c1ccc2ccccc2c1` [Example 37, 5-Methylsulfanyl-4-(naphthalene-2-sulfonyl)-thiophene-2-carboxamidine triflouroacetate]: the Ki was 6 to 23 nM. As to `COc1ccc(-c2cccc(S(=O)(=O)c3cc(C(=N)N)sc3SC)c2)c(OC)c1` [Example 41, 4-(2′,4′-Dimethoxy-biphenyl-3-sulfonyl)-5-methylsulfanyl-thiophene-2-carboxamidine], the Ki lay in the range of 6 to 23 nM.

`COc1ccc(-c2cccc(S(=O)(=O)c3cc(C(=N)N)sc3SC)c2)cc1` [Example 42, 4-(4′-Methoxy-biphenyl-3-sulfonyl)-5-methylsulfanyl-thiophene-2-carboxamidine]: the Ki was 6 to 23 nM.

`COc1ccc(-c2cccc(S(=O)(=O)c3cc(C(=N)N)sc3SC)c2)cc1OC` [Example 43, 4-(3′,4′-Dimethoxy-biphenyl-3-sulfonyl)-5-methylsulfanyl-thiophene-2-carboxamidine] registered a Ki of 6 to 23 nM. Molecule `COc1cccc(-c2cccc(S(=O)(=O)c3cc(C(=N)N)sc3SC)c2)c1` [Example 44, 4-(3′-Methoxy-biphenyl-3-sulfonyl)-5-methylsulfanyl-thiophene-2-carboxamidine] gave a Ki of 6 to 23 nM. The same measure for `COc1ccccc1-c1cccc(S(=O)(=O)c2cc(C(=N)N)sc2SC)c1` [Example 45, 4-(2′-Methoxy-biphenyl-3-sulfonyl)-5-methylsulfanyl-thiophene-2-carboxamidine]: 6 to 23 nM; for `CSc1sc(C(=N)N)cc1S(=O)(=O)c1cccc(-c2cc(Cl)cc(Cl)c2)c1` [Example 46, 4-(3′,5′-Dichloro-biphenyl-3-sulfonyl)-5-methylsulfanyl-thiophene-2-carboxamidine]: 6 to 23 nM; for `CSc1sc(C(=N)N)cc1S(=O)(=O)c1cccc(-c2cc(Cl)ccc2Cl)c1` [Example 47, 4-(2′,5′-Dichloro-biphenyl-3-sulfonyl)-5-methylsulfanyl-thiophene-2-carboxamidine]: 6 to 23 nM.

In turn, `CSc1sc(C(=N)N)cc1S(=O)(=O)c1cccc(-c2cc(C(F)(F)F)cc(C(F)(F)F)c2)c1` [Example 48, 4-(3′,5′-Bis-trifluoromethyl-biphenyl-3-sulfonyl)-5-methylsulfanyl-thiophene-2-carboxamidine] came in with a Ki of 6 to 23 nM. The same measure for `CSc1sc(C(=N)N)cc1S(=O)(=O)c1cccc(-c2cc3ccccc3o2)c1` [Example 49, 4-(3-Benzofuran-2-yl-benzenesulfonyl)-5-methylsulfanyl-thiophene-2-carboxamidine]: 6 to 23 nM. As to `CSc1sc(C(=N)N)cc1S(=O)(=O)c1cccc(-c2cc3ccccc3s2)c1` [Example 50, 4-(3-Benzo[b]thiophen-2-yl-benzenesulfonyl)-5-methylsulfanyl-thiophene-2-carboxamidine], the Ki was 6 to 23 nM.

`CSc1sc(C(=N)N)cc1S(=O)(=O)c1cccc(-c2ccc(C)c([N+](=O)[O-])c2)c1` [Example 51, 4-(4′-Methyl-3′-nitro-biphenyl-3-sulfonyl)-5-methylsulfanyl-thiophene-2-carboxamidine] returned a Ki of 6 to 23 nM. `CSc1sc(C(=N)N)cc1S(=O)(=O)c1cccc(-c2ccc(C)cc2)c1` [Example 52, 4-(4′-Methyl-biphenyl-3-sulfonyl)-5-methylsulfanyl-thiophene-2-carboxamidine] showed a Ki of 6 to 23 nM. The molecule `CSc1sc(C(=N)N)cc1S(=O)(=O)c1cccc(-c2ccc(Cl)cc2)c1` [Example 53, 4-(4′-Chloro-biphenyl-3-sulfonyl)-5-methylsulfanyl-thiophene-2-carboxamidine] gave a Ki of 6 to 23 nM. `CSc1sc(C(=N)N)cc1S(=O)(=O)c1cccc(-c2ccc(C(F)(F)F)cc2)c1` [Example 54, 5-Methylsulfanyl-4-(4′-trifluoromethyl-biphenyl-3-sulfonyl)-thiophene-2-carboxamidine] returned a Ki of 6 to 23 nM.

Molecule `CSc1sc(C(=N)N)cc1S(=O)(=O)c1cccc(-c2ccc(OC(F)(F)F)cc2)c1` [Example 55, 5-Methylsulfanyl-4-(4′-trifluoromethoxy-biphenyl-3-sulfonyl)-thiophene-2-carboxamidine] had a Ki of 6 to 23 nM. `CSc1sc(C(=N)N)cc1S(=O)(=O)c1cccc(-c2ccc(Oc3ccccc3)cc2)c1` [Example 56, 5-Methylsulfanyl-4-(4′-phenoxy-biphenyl-3-sulfonyl)-thiophene-2-carboxamidine] returned a Ki of 6 to 23 nM. In turn, `CSc1sc(C(=N)N)cc1S(=O)(=O)c1cccc(-c2ccc3c(c2)OCO3)c1` [Example 58, 4-(3-Benzo[1,3]dioxol-5-yl-benzenesulfonyl)-5-methylsulfanyl-thiophene-2-carboxamidine] returned a Ki of 6 to 23 nM. For the molecule `CSc1sc(C(=N)N)cc1S(=O)(=O)c1cccc(-c2ccc3cccnc3c2)c1` [Example 59, 5-Methylsulfanyl-4-(3-quinolin-7-yl-benzenesulfonyl)-thiophene-2-carboxamidine], the Ki lay in the range of 6 to 23 nM.

Consider `CSc1sc(C(=N)N)cc1S(=O)(=O)c1cccc(-c2cccc(C)c2)c1` [Example 60, 4-(3′-methyl-biphenyl-3-sulfonyl)-5-methylsulfanyl-thiophene-2-carboxamidine], for which the Ki is 6 to 23 nM. Consider `CSc1sc(C(=N)N)cc1S(=O)(=O)c1cccc(-c2cccc(C=O)c2)c1` [Example 61, 4-(3′-Formyl-biphenyl-3-sulfonyl)-5-methylsulfanyl-thiophene-2-carboxamidine], for which the Ki was 6 to 23 nM and 6 nM. As for `CSc1sc(C(=N)N)cc1S(=O)(=O)c1cccc(-c2cccc(N)c2)c1` [Example 62, 4-(3′-Amino-biphenyl-3-sulfonyl)-5-methylsulfanyl-thiophene-2-carboxamidine], the Ki was in the range of 6 to 23 nM. Molecule `CSc1sc(C(=N)N)cc1S(=O)(=O)c1cccc(-c2cccc(C(F)(F)F)c2)c1` [Example 63, 5-Methylsulfanyl-4-(3′-trifluoromethyl-biphenyl-3-sulfonyl)-thiophene-2-carboxamidine] registered a Ki of 6 to 23 nM. In turn, `CSc1sc(C(=N)N)cc1S(=O)(=O)c1cccc(-c2cccc(CO)c2)c1` [Example 64, 4-(3′-Hydroxymethyl-biphenyl-3-sulfonyl)-5-methylsulfanyl-thiophene-2-carboxamidine] showed a Ki of 6 to 23 nM. Molecule `CSc1sc(C(=N)N)cc1S(=O)(=O)c1cccc(-c2cccc(-c3ccccc3)c2)c1` [Example 65, 5-Methylsulfanyl-4-([1,1′;3′,1″]terphenyl-3-sulfonyl)-thiopbene-2-carboxamidine] came in with a Ki of 6 to 23 nM.

In turn, `CSc1sc(C(=N)N)cc1S(=O)(=O)c1cccc(-c2cccc3c2oc2ccccc23)c1` [Example 66, 4-(3-Dibenzofuran-4-yl-benzenesulfonyl)-5-methylsulfanyl-thiophene-2-carboxamidine] gave a Ki of 6 to 23 nM. Consider `CSc1sc(C(=N)N)cc1S(=O)(=O)c1cccc(-c2ccccc2C(F)(F)F)c1` [Example 67, 5-Methylsulfanyl-4-(2′-trifluoromethyl-biphenyl-3-sulfonyl)-thiophene-2-carboxamidine], for which the Ki fell in the range of 6 to 23 nM.

For the molecule `CSc1sc(C(=N)N)cc1S(=O)(=O)c1cccc(-c2ccccc2CO)c1` [Example 68, 4-(2′-Hydroxymethyl-biphenyl-3-sulfonyl)-5-methylsulfanyl-thiophene-2-carboxamidine], the Ki was 6 to 23 nM.

`CSc1sc(C(=N)N)cc1S(=O)(=O)c1cccc(-c2ccccc2Cl)c1` [Example 69, 4-(2′-Chloro-biphenyl-3-sulfonyl)-5-methylsulfanyl-thiophene-2-carboxamidine] yielded a Ki of 6 to 23 nM. `CSc1sc(C(=N)N)cc1S(=O)(=O)c1cccc(-c2cccnc2)c1` [Example 70, 5-Methylsulfanyt-4-(3-pyridin-3-yl-benzenesulfonyl)-thiophene-2-carboxamidine] yielded a Ki of 6 to 23 nM.

For `CSc1sc(C(=N)N)cc1S(=O)(=O)c1cccc(-c2cncnc2)c1` [Example 71, 5-Methylsulfanyl-4-(3-pyrimidin-5-yl-benzenesulfonyl)-thiophene-2-carboxamidine], the Ki was in the range of 6 to 23 nM. Regarding `CSc1sc(C(=N)N)cc1S(=O)(=O)c1cccc(-c2ccoc2)c1` [Example 72, 4-(3-Furan-3-yl-benzenesulfonyl)-5-methylsulfanyl-thiophene-2-carboxamidine], the Ki lay in the range of 6 to 23 nM.

As a reminder, the Ki is a measure of affinity in units of concentration, obtained from inhibition or displacement. High values mean a looser hold on the target, low ones a stronger hold on the target.
